Reference: PMC12517324, “Hyperagonism of a Vitamin D Receptor Agonist/Histone Deacetylase Inhibitor Hybrid Molecule” (Journal of Medicinal Chemistry, 2025)

Tested on: B16–F10 cells
Experiment: RNaseq gene expression profiling
Type: cell-based, mouse
Details: RNAseq
Procedure: AC-340 superinduced CYP24A1 expression in all cell lines tested, and ZG-126 appeared to be a hyperagonist in SK-MEL-28 cells. […] AC-340 treatment produced 3 times more differentially expressed genes (DEGs) than AM-193, with ZG-126 producing an intermediate number (Figure A). […] The varying effects of each treatment on the numbers of regulated genes and the fold changes observed are reflected in plots of log-fold changes and volcano plots (Figure S3B).
A quality control was performed before sequencing in paired-end at 50 M reads by Illumina NovaSeq 6000 S4 PE100. After sequencing, the FASTQ files were sent to us and all downstream analysis were performed on Galaxy (Galaxy (usegalaxy.org)). First, trimmomatic tool was used to remove the adapters from the reads. Then, using the alignment tool, HISAT2, the reads were mapped to the mouse genome. In the next step, the counted reads were annotated and finally the list of differentially expressed genes (DEGs) for each treatment was obtained using the preinstalled R package called Limma.

CCC(CC)(c1ccc(OCCCCCC(=O)NO)cc1)c1ccc(OCC(O)C(C)(C)C)c(C)n1 (stereo not shown) [AM-193]
logFC Acat2 (gene Acat2, AM193-significant genes): -0.7924 | logFC Agt (gene Agt, AM193-significant genes): -0.9491 | logFC Aimp2 (gene Aimp2, AM193-significant genes): -0.7904 | logFC Alyref (gene Alyref, AM193-significant genes): -0.7893 | logFC Anln (gene Anln, AM193-significant genes): -0.751 | logFC Aurkb (gene Aurkb, AM193-significant genes): -0.7442 | logFC B3galt5 (gene B3galt5, AM193-significant genes): -0.7772 | logFC Bhlhe40 (gene Bhlhe40, AM193-significant genes): -0.9608 | logFC Birc5 (gene Birc5, AM193-significant genes): -0.9013 | logFC Bnip1 (gene Bnip1, AM193-significant genes): -0.7195 | logFC Bora (gene Bora, AM193-significant genes): -0.8854 | logFC Brca1 (gene Brca1, AM193-significant genes): -0.7501 | logFC Bsn (gene Bsn, AM193-significant genes): -0.8525 | logFC Cad (gene Cad, AM193-significant genes): -1.103 | logFC Calr (gene Calr, AM193-significant genes): -0.7283 | logFC Ccl5 (gene Ccl5, AM193-significant genes): -0.8403 | logFC Ccna2 (gene Ccna2, AM193-significant genes): -0.7214 | logFC Ccnb1 (gene Ccnb1, AM193-significant genes): -0.7431 | logFC Ccnf (gene Ccnf, AM193-significant genes): -0.8441 | logFC Cd3eap (gene Cd3eap, AM193-significant genes): -0.7422 | logFC Cdc6 (gene Cdc6, AM193-significant genes): -0.8307 | logFC Cdc20 (gene Cdc20, AM193-significant genes): -0.7899 | logFC Cdc25c (gene Cdc25c, AM193-significant genes): -0.8576 | logFC Cdk1 (gene Cdk1, AM193-significant genes): -0.7282 | logFC Cdk2 (gene Cdk2, AM193-significant genes): -0.7948 | logFC Cenpa (gene Cenpa, AM193-significant genes): -0.7639 | logFC Cenpn (gene Cenpn, AM193-significant genes): -0.717 | logFC Cep152 (gene Cep152, AM193-significant genes): -0.7072 | logFC Cse1l (gene Cse1l, AM193-significant genes): -0.7192 | logFC Dctd (gene Dctd, AM193-significant genes): -1.041 | logFC Ddah1 (gene Ddah1, AM193-significant genes): -1.0571 | logFC Dhcr24 (gene Dhcr24, AM193-significant genes): -1.0227 | logFC Dis3 (gene Dis3, AM193-significant genes): -0.7516 | logFC Dkc1 (gene Dkc1, AM193-significant genes): -0.7246 | logFC Dnph1 (gene Dnph1, AM193-significant genes): -0.7927 | logFC E2f8 (gene E2f8, AM193-significant genes): -0.7725 | logFC Egln1 (gene Egln1, AM193-significant genes): -1.099 | logFC Elovl6 (gene Elovl6, AM193-significant genes): -0.8086 | logFC Eme1 (gene Eme1, AM193-significant genes): -0.7703 | logFC Eps8 (gene Eps8, AM193-significant genes): -0.9363 | logFC Espl1 (gene Espl1, AM193-significant genes): -0.8155 | logFC Exosc6 (gene Exosc6, AM193-significant genes): -0.7177 | logFC Exosc8 (gene Exosc8, AM193-significant genes): -0.7524 | logFC Fam162a (gene Fam162a, AM193-significant genes): -1.049 | logFC Fam83d (gene Fam83d, AM193-significant genes): -0.8732 | logFC Fasn (gene Fasn, AM193-significant genes): -0.7289 | logFC Fdps (gene Fdps, AM193-significant genes): -0.7443 | logFC Fkbp11 (gene Fkbp11, AM193-significant genes): -1.012 | logFC Foxm1 (gene Foxm1, AM193-significant genes): -0.7084 | logFC Fubp1 (gene Fubp1, AM193-significant genes): -0.7875 | logFC Fut11 (gene Fut11, AM193-significant genes): -0.7657 | logFC Gamt (gene Gamt, AM193-significant genes): -0.9245 | logFC Gar1 (gene Gar1, AM193-significant genes): -0.799 | logFC Gcat (gene Gcat, AM193-significant genes): -1.125 | logFC Gemin4 (gene Gemin4, AM193-significant genes): -0.7731 | logFC Gins1 (gene Gins1, AM193-significant genes): -0.7214 | logFC Gjb2 (gene Gjb2, AM193-significant genes): -0.8099 | logFC Gm973 (gene Gm973, AM193-significant genes): -0.7844 | logFC Grhpr (gene Grhpr, AM193-significant genes): -0.8764 | logFC Grwd1 (gene Grwd1, AM193-significant genes): -0.9726 | logFC Gys1 (gene Gys1, AM193-significant genes): -0.7213 | logFC H1f3 (gene H1f3, AM193-significant genes): -0.9967 | logFC H1f6 (gene H1f6, AM193-significant genes): -1.042 | logFC H2ac6 (gene H2ac6, AM193-significant genes): -0.96 | logFC H2ac8 (gene H2ac8, AM193-significant genes): -0.9016 | logFC H2ac11 (gene H2ac11, AM193-significant genes): -0.8838 | logFC H2ac25 (gene H2ac25, AM193-significant genes): -0.7891 | logFC H2ax (gene H2ax, AM193-significant genes): -0.7149 | logFC H2bc6 (gene H2bc6, AM193-significant genes): -0.7735 | logFC H2bc8 (gene H2bc8, AM193-significant genes): -0.9803 | logFC H2bc9 (gene H2bc9, AM193-significant genes): -1.042 | logFC H2bc11 (gene H2bc11, AM193-significant genes): -0.7444 | logFC H2bc18 (gene H2bc18, AM193-significant genes): -0.8059 | logFC H2bu1-ps (gene H2bu1-ps, AM193-significant genes): -0.9542 | logFC H3c1 (gene H3c1, AM193-significant genes): -0.892 | logFC H3c6 (gene H3c6, AM193-significant genes): -0.7599 | logFC H3c7 (gene H3c7, AM193-significant genes): -0.9595 | logFC H4c1 (gene H4c1, AM193-significant genes): -0.7797 | logFC H4c2 (gene H4c2, AM193-significant genes): -0.7954 | logFC Higd1a (gene Higd1a, AM193-significant genes): -0.903 | logFC Hirip3 (gene Hirip3, AM193-significant genes): -0.7302 | logFC Hmga1 (gene Hmga1, AM193-significant genes): -1.033 | logFC Hmga1b (gene Hmga1b, AM193-significant genes): -1.051 | logFC Hmgb2 (gene Hmgb2, AM193-significant genes): -0.8226 | logFC Hmgcs1 (gene Hmgcs1, AM193-significant genes): -0.7755 | logFC Hmgn2 (gene Hmgn2, AM193-significant genes): -0.7752 | logFC Hpse (gene Hpse, AM193-significant genes): -0.8433 | logFC Hrob (gene Hrob, AM193-significant genes): -0.8536 | logFC Hspa5 (gene Hspa5, AM193-significant genes): -0.7657 | logFC Idi1 (gene Idi1, AM193-significant genes): -1.099 | logFC Ier3 (gene Ier3, AM193-significant genes): -0.7432 | logFC Impa2 (gene Impa2, AM193-significant genes): -0.8388 | logFC Impdh2-ps (gene Impdh2-ps, AM193-significant genes): -0.7159 | logFC Incenp (gene Incenp, AM193-significant genes): -0.7108 | logFC Ip6k3 (gene Ip6k3, AM193-significant genes): -0.7379 | logFC Irgm1 (gene Irgm1, AM193-significant genes): -0.7387 | logFC Jmjd6 (gene Jmjd6, AM193-significant genes): -0.8319 | logFC Jpt2 (gene Jpt2, AM193-significant genes): -0.8326 | logFC Kif2c (gene Kif2c, AM193-significant genes): -0.7884 | logFC Kif14 (gene Kif14, AM193-significant genes): -0.8043 | logFC Kif20b (gene Kif20b, AM193-significant genes): -0.7216 | logFC Kif22 (gene Kif22, AM193-significant genes): -0.8428 | logFC Kif23 (gene Kif23, AM193-significant genes): -0.7776 | logFC Ldha (gene Ldha, AM193-significant genes): -0.9079 | logFC Ldlr (gene Ldlr, AM193-significant genes): -0.7666 | logFC Lig1 (gene Lig1, AM193-significant genes): -0.7368 | logFC Lmnb1 (gene Lmnb1, AM193-significant genes): -0.9349 | logFC Loxl2 (gene Loxl2, AM193-significant genes): -1.106 | logFC Lpcat1 (gene Lpcat1, AM193-significant genes): -1.098 | logFC Lpgat1 (gene Lpgat1, AM193-significant genes): -0.8431 | logFC Lrp8 (gene Lrp8, AM193-significant genes): -0.9511 | logFC Lyar (gene Lyar, AM193-significant genes): -0.724 | logFC Man2a1 (gene Man2a1, AM193-significant genes): -0.7409 | logFC Mcm10 (gene Mcm10, AM193-significant genes): -0.7922 | logFC Mest (gene Mest, AM193-significant genes): -1.125 | logFC Met (gene Met, AM193-significant genes): -1.057 | logFC Mitf (gene Mitf, AM193-significant genes): -0.8034 | logFC Mki67 (gene Mki67, AM193-significant genes): -0.7294 | logFC Mxd3 (gene Mxd3, AM193-significant genes): -0.9949 | logFC Mybl2 (gene Mybl2, AM193-significant genes): -1.058 | logFC Naa10 (gene Naa10, AM193-significant genes): -0.8589 | logFC Nampt (gene Nampt, AM193-significant genes): -0.7338 | logFC Nasp (gene Nasp, AM193-significant genes): -0.9086 | logFC Nbn (gene Nbn, AM193-significant genes): -0.7109 | logFC Ndc80 (gene Ndc80, AM193-significant genes): -0.7825 | logFC Net1 (gene Net1, AM193-significant genes): -0.7159 | logFC Nhp2 (gene Nhp2, AM193-significant genes): -0.7487 | logFC Nhsl1 (gene Nhsl1, AM193-significant genes): -0.7298 | logFC Nmi (gene Nmi, AM193-significant genes): -0.8028 | logFC Noc2l (gene Noc2l, AM193-significant genes): -0.884 | logFC Nr4a1 (gene Nr4a1, AM193-significant genes): -0.9791 | logFC Nsun2 (gene Nsun2, AM193-significant genes): -0.766 | logFC P4ha2 (gene P4ha2, AM193-significant genes): -0.8086 | logFC Pbk (gene Pbk, AM193-significant genes): -0.8895 | logFC Pclaf (gene Pclaf, AM193-significant genes): -0.7086 | logFC Pfkl (gene Pfkl, AM193-significant genes): -1.068 | logFC Pfkp (gene Pfkp, AM193-significant genes): -0.83 | logFC Pgf (gene Pgf, AM193-significant genes): -1.056 | logFC Pgm1 (gene Pgm1, AM193-significant genes): -0.9062 | logFC Pgp (gene Pgp, AM193-significant genes): -0.8532 | logFC Pif1 (gene Pif1, AM193-significant genes): -0.8212 | logFC Pimreg (gene Pimreg, AM193-significant genes): -0.8591 | logFC Plekha2 (gene Plekha2, AM193-significant genes): -0.8787 | logFC Plk1 (gene Plk1, AM193-significant genes): -0.7788 | logFC Plpp5 (gene Plpp5, AM193-significant genes): -0.8001 | logFC Pmf1 (gene Pmf1, AM193-significant genes): -0.796 | logFC Pnn (gene Pnn, AM193-significant genes): -0.8904 | logFC Pold1 (gene Pold1, AM193-significant genes): -0.8466 | logFC Pold2 (gene Pold2, AM193-significant genes): -0.855 | logFC Prkcz (gene Prkcz, AM193-significant genes): -1.145 | logFC Psmb10 (gene Psmb10, AM193-significant genes): -0.8103 | logFC Ptpn6 (gene Ptpn6, AM193-significant genes): -0.8579 | logFC Rcc1 (gene Rcc1, AM193-significant genes): -0.8765 | logFC Rcc1l (gene Rcc1l, AM193-significant genes): -0.7067
